# In patent publication US20250002507A1, “7,8-DIHYDRO-5H-1,6-NAPHTHYRIDINE DERIVATIVES AS POSITIVE ALLOSTERIC MODULATORS OF THE MUSCARINIC ACETYLCHOLINE RECEPTOR M4 FOR TREATING NEUROLOGICAL AND PSYCHIATRIC DISORDERS” (Vanderbilt University, priority 2021, published 2025):
# Biological target: T1, Human M4 (Homo sapiens, UniProt P08173)
# T1 construct: expressed in transfected cells
# T1 sequence (P08173 1-479): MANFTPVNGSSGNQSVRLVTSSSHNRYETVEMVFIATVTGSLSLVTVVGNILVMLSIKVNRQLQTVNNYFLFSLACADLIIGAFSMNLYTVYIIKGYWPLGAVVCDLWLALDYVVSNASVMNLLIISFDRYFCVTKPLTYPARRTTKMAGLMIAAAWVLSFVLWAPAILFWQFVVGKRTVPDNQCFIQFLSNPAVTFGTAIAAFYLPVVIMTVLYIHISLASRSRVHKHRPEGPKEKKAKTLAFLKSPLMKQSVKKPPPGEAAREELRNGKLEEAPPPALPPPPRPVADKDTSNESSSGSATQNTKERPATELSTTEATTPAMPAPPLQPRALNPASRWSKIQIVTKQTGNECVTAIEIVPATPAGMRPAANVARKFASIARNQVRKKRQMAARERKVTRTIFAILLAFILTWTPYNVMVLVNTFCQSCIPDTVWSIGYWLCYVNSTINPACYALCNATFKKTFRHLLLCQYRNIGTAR
# Assay: mAChR M4 cell-based functional assay (calcium flux, potentiation of EC20 acetylcholine response), hM4-Gqi5 CHO-K1 cells
# Settings: Table 3; for Emax at 30 µM: CHO-K1, Human M4, % ACh maximum at 30 μM, read-out: Emax (% ACh maximum at 30 μM); for EC50: potentiation of EC20 acetylcholine response, calcium flux, CHO-K1 cells, read-out: Human M4 EC50
# In short: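 Positive allosteric modulation was scored as a concentration-dependent rise in the response to an EC20 dose of acetylcholine, added 144 s after the compound. Human M4-Gqi5 CHO-K1 cells carried Fluo-4 dye, and compounds ran as 11-point, 3-fold dilution series. EC50 and Emax came from four-parameter logistic fits of the FDSS fluorescence-ratio traces.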
Compound,Emax at 30 µM [%],EC50 [nM]
"Cc1c(N2CCc3ncc(-c4ccc(N5CCN(C)CC5)nc4)cc3C2)nn2cnnc2c1C [Compound 187, 6-(7,8-dimethyl-[1,2,4]triazolo[4,3-b]pyridazin-6-yl)-3-(6-(4-methylpiperazin-1-yl)pyridin-3-yl)-5,6,7,8-tetrahydro-1,6-naphthyridine]",104,63
"Cc1cc2nccn2nc1N1CCc2ncc(C(F)(F)F)cc2C1 [Compound 188, 6-(7-methylimidazo[1,2-b]pyridazin-6-yl)-3-(trifluoromethyl)-5,6,7,8-tetrahydro-1,6-naphthyridine]",69,523
"Cc1c(N2CCc3ncc(C(F)F)cc3C2)nn2cnnc2c1C [Compound 189, 3-(difluoromethyl)-6-(7,8-dimethyl-[1,2,4]triazolo[4,3-b]pyridazin-6-yl)-5,6,7,8-tetrahydro-1,6-naphthyridine]",103,90
"Cc1cc2nncn2nc1N1CCc2ncc(Nc3ccnn3C)cc2C1 [Compound 190, N-(1-methyl-1H-pyrazol-5-yl)-6-(7-methyl-[1,2,4]triazolo[4,3-b]pyridazin-6-yl)-5,6,7,8-tetrahydro-1,6-naphthyridin-3-amine]",102,234
"Cc1c(N2CCc3ncc(-c4ccc(-n5cccn5)nc4)cc3C2)nn2cnnc2c1C [Compound 191, 3-(6-(1H-pyrazol-1-yl)pyridin-3-yl)-6-(7,8-dimethyl-[1,2,4]triazolo[4,3-b]pyridazin-6-yl)-5,6,7,8-tetrahydro-1,6-naphthyridine]",66,342
"Cc1c(N2CCc3ncc(-c4ccc(-n5ccnc5)nc4)cc3C2)nn2cnnc2c1C [Compound 192, 3-(6-(1H-imidazol-1-yl)pyridin-3-yl)-6-(7,8-dimethyl-[1,2,4]triazolo[4,3-b]pyridazin-6-yl)-5,6,7,8-tetrahydro-1,6-naphthyridine]",72,281
"Cc1cc2nncn2nc1N1CCc2ncc(-c3ccns3)cc2C1 [Compound 193, 5-(6-(7-methyl-[1,2,4]triazolo[4,3-b]pyridazin-6-yl)-5,6,7,8-tetrahydro-1,6-naphthyridin-3-yl)isothiazole]",93,94
"Cc1ncc(-c2cnc3c(c2)CN(c2nn4cnnc4cc2C)CC3)s1 [Compound 194, 2-methyl-5-(6-(7-methyl-[1,2,4]triazolo[4,3-b]pyridazin-6-yl)-5,6,7,8-tetrahydro-1,6-naphthyridin-3-yl)thiazole]",88,292
"Cc1nc(C)c(-c2cnc3c(c2)CN(c2nn4cnnc4cc2C)CC3)s1 [Compound 195, 2,4-dimethyl-5-(6-(7-methyl-[1,2,4]triazolo[4,3-b]pyridazin-6-yl)-5,6,7,8-tetrahydro-1,6-naphthyridin-3-yl)thiazole]",89,200
"Cc1cc2nncn2nc1N1CCc2ncc(-c3ccc(C(F)(F)F)nc3)cc2C1 [Compound 196, 6-(7-methyl-[1,2,4]triazolo[4,3-b]pyridazin-6-yl)-3-(6-(trifluoromethyl)pyridin-3-yl)-5,6,7,8-tetrahydro-1,6-naphthyridine]",80,708
"Cc1cc2nncn2nc1N1CCc2ncc(-c3ccc(C4CC4)nc3)cc2C1 [Compound 197, 3-(6-cyclopropylpyridin-3-yl)-6-(7-methyl-[1,2,4]triazolo[4,3-b]pyridazin-6-yl)-5,6,7,8-tetrahydro-1,6-naphthyridine]",82,176
"Cc1ccc(-c2cnc3c(c2)CN(c2nn4cnnc4cc2C)CC3)cn1 [Compound 198, 6-(7-methyl-[1,2,4]triazolo[4,3-b]pyridazin-6-yl)-3-(6-methylpyridin-3-yl)-5,6,7,8-tetrahydro-1,6-naphthyridine]",93,206
"Cc1cc2nncn2nc1N1CCc2ncc(-c3cccnc3)cc2C1 [Compound 199, 6-(7-methyl-[1,2,4]triazolo[4,3-b]pyridazin-6-yl)-3-(pyridin-3-yl)-5,6,7,8-tetrahydro-1,6-naphthyridine]",84,334
"Cc1c(N2CCc3ncc(C4CC4)cc3C2)nn2cnnc2c1C [Compound 200, 3-cyclopropyl-6-(7,8-dimethyl-[1,2,4]triazolo[4,3-b]pyridazin-6-yl)-5,6,7,8-tetrahydro-1,6-naphthyridine]",93,53
"Cc1c(N2CCc3ncc(Nc4ccnn4C)cc3C2)nn2c(C(F)(F)F)nnc2c1C [Compound 201, 6-(7,8-dimethyl-3-(trifluoromethyl)-[1,2,4]triazolo[4,3-b]pyridazin-6-yl)-N-(1-methyl-1H-pyrazol-5-yl)-5,6,7,8-tetrahydro-1,6-naphthyridin-3-amine]",94,63
"COc1ccc(-c2cnc3c(c2)CN(c2nn4cnnc4cc2C)CC3)cn1 [Compound 202, 3-(6-methoxypyridin-3-yl)-6-(7-methyl-[1,2,4]triazolo[4,3-b]pyridazin-6-yl)-5,6,7,8-tetrahydro-1,6-naphthyridine]",95,227
"Cc1cc2nncn2nc1N1CCc2ncc(Nc3nsc4ncccc34)cc2C1 [Compound 203, N-(6-(7-methyl-[1,2,4]triazolo[4,3-b]pyridazin-6-yl)-5,6,7,8-tetrahydro-1,6-naphthyridin-3-yl)isothiazolo[5,4-b]pyridin-3-amine]",35,82
"Cc1cc2nncn2nc1N1CCc2ncc(Nc3nn(C)c4ccccc34)cc2C1 [Compound 204, N-(1-methyl-1H-indazol-3-yl)-6-(7-methyl-[1,2,4]triazolo[4,3-b]pyridazin-6-yl)-5,6,7,8-tetrahydro-1,6-naphthyridin-3-amine]",62,3550
"Cc1cc2nncn2nc1N1CCc2ncc(Nc3csc4ncccc34)cc2C1 [Compound 205, N-(6-(7-methyl-[1,2,4]triazolo[4,3-b]pyridazin-6-yl)-5,6,7,8-tetrahydro-1,6-naphthyridin-3-yl)thieno[2,3-b]pyridin-3-amine]",65,477
"Cc1cc2nncn2nc1N1CCc2ncc(N3CCCn4nccc43)cc2C1 [Compound 206, 3-(6,7-dihydropyrazolo[1,5-a]pyrimidin-4(5H)-yl)-6-(7-methyl-[1,2,4]triazolo[4,3-b]pyridazin-6-yl)-5,6,7,8-tetrahydro-1,6-naphthyridine]",96,53
"Cc1c(N2CCc3ncc(-c4ccc(N5CCCC5)nc4)cc3C2)nn2cnnc2c1C [Compound 207, 6-(7,8-dimethyl-[1,2,4]triazolo[4,3-b]pyridazin-6-yl)-3-(6-(pyrrolidin-1-yl)pyridin-3-yl)-5,6,7,8-tetrahydro-1,6-naphthyridine]",73,401
"Cc1c(N2CCc3ncc(-c4ccc(N5CC6(C5)CC(F)(F)C6)nc4)cc3C2)nn2cnnc2c1C [Compound 208, 3-(6-(6,6-difluoro-2-azaspiro[3.3]heptan-2-yl)pyridin-3-yl)-6-(7,8-dimethyl-[1,2,4]triazolo[4,3-b]pyridazin-6-yl)-5,6,7,8-tetrahydro-1,6-naphthyridine]",96,463
